Measured values taken from patent publication US20060154910A1, “Use of steroids to treat ocular disorders” (priority 2003, published 2006).

Experiments:
rabbits = assay: Rabbit dexamethasone acetate induced IOP elevation, topical ocular anecortave acetate; type: in vivo; settings: for IOP change versus vehicle treated group: topical ocular three times a day for 2 weeks, rabbits on weekly subTenon's dexamethasone acetate 1 mg/kg, FIG. 2
Procedure: Three groups of rabbits received weekly subTenon's injections of dexamnethasone acetate (1 mg/kg) for 4 weeks. After two weeks, the IOPs of all three groups measured approximately […]. The rabbits were then treated with vehicle, 0.1% anecortave acetate, a 1% anecortave acetate by topical ocular dosing three times a day for the remaining 2 weeks. The IOP continued to increase in the vehicle treated group.

[1] = test system: patients with documented glucocorticoid induced ocular hypertension; assay: Topical anecortave acetate in patients with glucocorticoid induced ocular hypertension (IOP); type: in vivo, human; settings: patients (n=15), 1% eye drops topically three times per day for up to 12 weeks, glucocorticoid medication continued; reduced from 29 mm Hg; FIG. 1
Procedure: Patients (η=15) with documented glucocorticoid induced ocular hypertension were treated topically with 1% anecortave acetate eye drips three times per day for up to 12 weeks. The patients continued to receive their glucocorticoid medication.

SMILES: CC(=O)OCC(=O)[C@@]1(O)[C@H](C)C[C@H]2[C@@H]3CCC4=CC(=O)C=C[C@]4(C)[C@@]3(F)[C@@H](O)C[C@@]21C [dexamnethasone acetate, dexamethasone acetate, reference compound]
- IOP after two weeks of glucocorticoid injections (rabbits; rabbits, weekly subTenon's injections 1 mg/kg, after two weeks, all three groups): approximately 5 mm Hg

SMILES: CC(=O)OCC(=O)[C@@]1(O)CC[C@H]2[C@@H]3CCC4=CC(=O)CC[C@]4(C)C3=CC[C@@]21C [anecortave acetate, 4,9(11)-pregnadien-17α,21-diol-3,20dione-21-acetate]
- IOP change versus vehicle treated group (rabbits; 0.1% anecortave acetate): significantly lowered
- IOP change versus vehicle treated group (rabbits; 1% anecortave acetate): significantly lowered
- IOP after anecortave acetate treatment [1]: 19-22 mm Hg
